From patent US20250360111A1, “COMPOSITIONS OF AGPAT4 INHIBITORS AND METHODS OF USING THEREOF TO TREAT CANCER” (The University of Hong Kong, priority 2024, published 2025)

Assays:
[1] = biological target: T1, Purified human AGPAT4 protein (Homo sapiens, UniProt Q9NRZ5); assay: In vitro binding to AGPAT4 by gel-based ABPP (competition with IA-rhodamine); details: loss of IA-rhodamine fluorescence
T1 construct: The open reading frame (ORF) encoding the mRNA of AGPAT4 was cloned into pGEX-4T1; made in house; host or cells: Escherichia coli BL21
T1 sequence (Q9NRZ5 1-378): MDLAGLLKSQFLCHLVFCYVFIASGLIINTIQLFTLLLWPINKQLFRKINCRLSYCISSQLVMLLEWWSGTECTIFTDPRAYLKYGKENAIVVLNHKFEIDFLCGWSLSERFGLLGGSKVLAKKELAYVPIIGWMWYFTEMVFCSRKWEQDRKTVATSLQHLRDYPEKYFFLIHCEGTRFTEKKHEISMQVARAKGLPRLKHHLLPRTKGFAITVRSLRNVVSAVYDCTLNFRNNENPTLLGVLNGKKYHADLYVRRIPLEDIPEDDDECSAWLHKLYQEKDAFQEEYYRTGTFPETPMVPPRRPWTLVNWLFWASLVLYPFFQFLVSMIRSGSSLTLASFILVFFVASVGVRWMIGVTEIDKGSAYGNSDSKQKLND
Description: Purified human AGPAT4 protein (0.1 μg) was incubated with library compounds at 25 μM (unless indicated) for 1 h at room temperature, followed by incubation with IA-rhodamine (1 μM) for 1 h. Sampling buffer was added and the samples were denatured by boiling at 90° C. The samples were resolved by SDS-PAG E and fluorescence signals were captured using ChemiDoc MP (Bio-Rad) before silver staining to assess protein loading. The band fluorescence intensity was quantified using the ImageJ software.

[2] = system: AGPAT LPAAT family members (AGPAT1, 2, 3, 4 and 5); assay: Isoform specificity: streptavidin pulldown and immunoblotting of CL26-alkyne-bound proteins; format: cell-based, human; details: Huh7 cells, DTB-PEG-azide, streptavidin pulldown
Description: An in-gel fluorescence assay was performed to investigate the protein targets of CL26. Huh7 cells overexpressing AGPAT4 or cysteine mutants were pre-treated with CL26 at the indicated concentrations for 2 h, followed by CL26-alkyne (1 μM) treatment for another 2 h. Cells were harvested in RIPA buffer supplemented with protease and phosphatase inhibitors (Thermo Fisher Scientific #A32961). The proteins were precipitated by incubation with 6× volume of pre-chilled acetone at −20° C. overnight. Proteins were pelleted by centrifugation at 5000 g for 10 min and resuspended in PBS. The protein content was measured using the BCA assay and normalized to 2 mg/mL. Cell lysates (50 μL) were labelled with azide-fluor 545 by click reaction (final reaction mixture: azide-fluor 545 (25 μM), copper(II) sulfate (1 mM), TBTA (100 μM), and freshly prepared TCEP (1 mM)) at room temperature with constant agitation. After incubation for 1 h, the reaction was quenched with the sampling buffer and boiled at 90° C. for 5 min. Samples were subjected to SDS-PAGE, in-gel fluorescence was captured using ChemiDoc MP (Bio-Rad), and Coomassie Blue staining was performed. Similarly, immunoblotting was used to investigate the protein targets of CL26. […] The samples were subjected to SDS-PAG E and imaged for fluorescence signals before western blot analysis. […]

[3] = system: MHCC97L and MHCC97H vs. Huh7 and LO2 cells; assay: XTT assay, viability assay and excess over bliss synergy analysis; format: cell-based, human; details: CL26 combined with sorafenib, 48 h
Description: (§1) Cells (1×10^3 cells/well) were seeded in 96-well plates and cultured in complete medium for 24 h. Subsequently, sorafenib and/or CL26 was added to the culture and incubated for 48 h. The XTT tetrazolium reagent (Gold Biotechnology) and phenazine methosulfate (Thermo Fisher Scientific) were premixed and added to each well. The absorbance at 450 nm was measured using a Victor 3 microplate reader (PerkinElimer). Drug interactions were evaluated using the bliss independence model. According to this model, the expected growth inhibition (Eexp) resulting from the combination of drugs A and B was calculated using the following equation: Eexp=Ea+Eb−Ea×Eb, with Ea representing the growth inhibition caused by drug A alone and Eb representing the growth inhibition caused by drug B alone. To assess drug interactions, the difference between the observed growth inhibition (Eobs) and expected growth inhibition (Eexp) was calculated.
(§2) 1×10^4 cells were seeded in a 6-well plate and cultured in complete medium for 24 h. Subsequently, sorafenib and/or CL26 was added to the culture and incubated for 48 h. Dead cells were carefully washed with PBS, and the remaining viable cells were fixed using 4% paraformaldehyde (Sigma-Aldrich) and visualized by staining with 2% crystal violet (Sigma-Aldrich).

[4] = system: sorafenib-sensitive and sorafenib-resistant HepG2 cells; assay: as above; format: cell-based, human; details: CL26 combined with sorafenib, 48 h
Description: as §1, §2

[5] = Animal toxicity studies; format: in vivo, C57BL/6 mice; details: 1 mg/kg or 10 mg/kg intraperitoneally
Description: C57BL/6 mice were administered CL26 at a low dose (1 mg/kg) or high dose (10 mg/kg) intraperitoneally to evaluate potential tissue damage associated with CL26 exposure. Major organs, including the liver, spleen, pancreas, kidney, heart, and lungs, were weighed prior to fixation in 10% formalin for subsequent paraffin embedding and H& E staining. Additionally, the serum concentrations of alanine aminotransferase (ALT) and aspartate aminotransferase (AST) were measured. The above analysis was performed at the Veterinary Diagnostic Laboratory of the City University of Hong Kong.

[6] = system: HCC PDX model #1 and sorafenib-resistant HCC PDX model #2
Description: HCC PDX #1 were first expanded in NOD-SCID mice as described previously (21). Sorafenib-resistant HCC PDX #2 was established and expanded as described previously (29). Dissociated PDX tumors (5×10^5 cells in 100% Matrigel) were orthotopically injected into the left lobes of the livers of 6-week-old BA L B/c nude mice (n=6-10 per group). Drug administration was initiated three weeks after inoculation. The mice were then randomized for treatment with DMSO, sorafenib, 30% PET (30% PEG400/15% ethanol/5% Tween 80 in saline), or CL26 (1 mg/kg or 10 mg/kg, delivered intraperitoneally thrice per week). Seven weeks post-inoculation, tumor-bearing mice were sacrificed. The livers were harvested for histological and ex vivo limiting dilution analyses.

[7] = sorafenib orally plus CL26 intraperitoneally

SMILES: O=C(CCl)NCc1ccc(-c2nc3ccccc3s2)o1 [CL26, N-[[5-(2-benzothiazolyl)-2-furanyl]methyl]-2-chloroacetamide]
- IC50 [1]: 0.766 µM
- specificity for AGPAT4 over other AGPAT LPAAT family members [2]: only targets AGPAT4 and no other related AGPAT isoforms
- synergistic effect with sorafenib (excess over bliss scores) [3]: synergistic effect was observed solely in cells with high AGPAT4-expressing MHCC97L and MHCC97H cells
- synergistic effect with sorafenib [4]: exclusively observed in sorafenib-resistant HepG2 cells
- blood chemistry (AST, ALT), major organ weight and histology vs control mice [5]: no significant differences
- toxicity associated with treatment [5]: minimal toxicity
- body weight vs control group ([6]; PDX mice treated with CL26): did not exhibit significant differences in body weight
- p-mTOR levels, multiplex immunohistochemistry ([6]; PDX tumors): reduction in p-mTOR levels
- self-renewal ability, ex vivo limiting dilution analysis ([6]; combination with sorafenib): decreased self-renewal ability
- survival rate ([6]; combination with sorafenib, HCC PDX model #2): highest survival rate
- number of tumor nodules [6, 7]: significant effect in reducing
- tumor size [6, 7]: significant effect in reducing
- tumor weight [6, 7]: significant effect in reducing
